Laboratory results from ChEMBL document CHEMBL5506068 (J Med Chem, 2024).
Activity calls are given as the source filed them. The rule behind the calls is not given here.

Tests used:
[1] = target: Kappa-type opioid receptor (Mus musculus, UniProt P33534); experiment: Displacement of [3H]diprenorphine from mouse KOR expressed in CHO cells assessed as dissociation constant incubated for […] by radioligand binding assay; type: cell-based
Mu-type opioid receptor = Mu-type opioid receptor (Mus musculus, UniProt P42866); experiment: Displacement of [3H]Naloxone from mouse MOR expressed in CHO cells assessed as dissociation constant incubated for […] by radioligand binding assay; type: cell-based
[2] = target: T1, Delta-type opioid receptor (Homo sapiens, UniProt P41143); experiment: Displacement of [3H]diprenorphine from human DOR expressed in CHO cells assessed as dissociation constant incubated for […] by radioligand binding assay; type: cell-based
Mus musculus [3] = experiment: Antinociception activity in male Swiss Webster mouse model assessed as increase in maximum possible effect at 10 mg/kg, sc measured after 20 mins by warm-water tail immersion assay relative to control; type: functional
[4] = target: T1, Delta-type opioid receptor
[5] = target: T1, Delta-type opioid receptor; experiment: Binding affinity to DOR (unknown origin) assessed as dissociation constant
Mus musculus [6] = experiment: Antinociception activity in male Swiss Webster mouse model assessed as effective dose administered as sc dose measured after 20 mins by warm-water tail immersion assay; type: functional
Mus musculus [7] = experiment: Antinociception activity in male Swiss Webster mouse model assessed as increase in maximum possible effect at 0.05 mg/kg, sc measured after 3 to 5 hrs post injection by warm-water tail immersion assay; type: functional, organism-based; conditions: time 3-5 hrs
Mus musculus [8] = experiment: Antinociception activity in male Swiss Webster mouse model assessed as increase in maximum possible effect at 0.05 mg/kg, sc measured after 30 to 60 mins post injection by warm-water tail immersion assay; type: functional, organism-based; conditions: time 30-60 min
in vivo [9] = conditions: Swiss Webster, mouse, blood and plasma, sc, 0.1 mg/kg
Description: Ratio of drug level in Swiss Webster mouse blood to plasma at 0.1 mg/kg, sc measured after 30 mins by LC-MS/MS analysis

Mus musculus [10] = experiment: Antinociception activity in male Swiss Webster mouse model assessed as effect on tail withdrawal latency at 0.1 mg/kg, sc pre incubated with nor-BNI for 24 hrs followed by compound addition and measured after 20 mins by warm water tail immersion assay; type: functional, organism-based
Mus musculus [11] = experiment: Antinociception activity in male Swiss Webster mouse model assessed as effect on tail withdrawal latency at 0.1 mg/kg, sc pre incubated with naltrindole for 30 mins followed by compound addition and measured after 20 mins by warm water tail immersion assay; type: functional, organism-based
[12] = Toxicity in Swiss Webster mouse assessed as effect on average speed at 0.1 to 0.5 mg/kg,sc measured after 30 mins; type: organism-based; conditions: in vivo, 0.5 h, dose 0.1-0.5 mg/kg
[13] = Toxicity in Swiss Webster mouse assessed as reduction in sedative effect at 0.1 to 0.5 mg/kg,sc; type: organism-based; conditions: in vivo, dose 0.1-0.5 mg/kg
[14] = Drug uptake in Swiss Webster mouse plasma at 0.1 mg/kg, sc measured after 5 mins by LC-MS/MS analysis; type: ADME, organism-based; conditions: in vivo
Mus musculus [15] = experiment: Antinociception activity in male Swiss Webster mouse model assessed as increase in maximum possible effect at 0.1 mg/kg, sc measured after 30 to 180 mins post injection by warm-water tail immersion assay; type: functional, organism-based; conditions: time 30-180 min
in vivo [16] = conditions: Swiss Webster, mouse, blood and plasma, sc, 0.1 mg/kg; remark: listed apart in the source
Description: Ratio of drug level in Swiss Webster mouse blood to plasma at 0.1 mg/kg, sc measured after 60 mins by LC-MS/MS analysis

[17] = target: T1, Delta-type opioid receptor; experiment: Agonist activity at human DOR expressed in CHO cells increase in [35S]GTPgammaS binding measured after […] by scintillation counter analysis relative to SNC80; type: functional, cell-based; conditions: filed as agonist
[18] = Abuse liability in male Sprague-Dawley rat assessed as reduction in reinforcement at 0.32 to 10 microg/kg administered per infusion; type: toxicity; conditions: in vivo, iv, dose 0.32-10 µg/kg
Mus musculus [19] = experiment: Antinociception activity in male Swiss Webster mouse model assessed as effect on tail withdrawal latency at 0.1 mg/kg, sc pre incubated with naltrindole/nor-BNI for 24 hrs followed by compound addition and measured after 20 mins by warm water tail immersion assay; type: functional, organism-based
[20] = Toxicity in Swiss Webster mouse assessed as effect on locomotion at 0.1 to 0.5 mg/kg,sc measured after 30 mins; type: organism-based; conditions: in vivo, 0.5 h, dose 0.1-0.5 mg/kg
Mus musculus [21] = species: Mus musculus; experiment: Selectivity ratio of Kd for mouse MOR to Kd for mouse KOR
Mus musculus [22] = experiment: Antinociception activity in male Swiss Webster mouse model assessed as increase in maximum possible effect at 10 mg/kg, sc administered as single dose measured after 20 mins in presence of morphine by warm-water tail immersion assay relative to control; type: functional
Mus musculus [23] = experiment: Antinociception activity in male Swiss Webster mouse model assessed as increase in maximum possible effect at 0.1 mg/kg, sc measured after 4 to 9 hrs post injection by warm-water tail immersion assay; type: functional, organism-based; conditions: time 4-9 hrs
[24] = Abuse liability in male Sprague-Dawley rat assessed as reduction in reinforcement at 0.1 to 10 microg/kg administered per infusion; type: toxicity; conditions: in vivo, iv, dose 0.1-10 µg/kg
Mus musculus [25] = experiment: Antinociception activity in male Swiss Webster mouse model assessed as increase in maximum possible effect at 0.1 mg/kg, sc measured after 30 to 60 mins post injection by warm-water tail immersion assay; type: functional, organism-based; conditions: time 30-60 min
[26] = Toxicity in Swiss Webster mouse assessed as reduction in locomotion activity administered as sc dose measured for 30 mins; type: organism-based; conditions: in vivo, 0.5 h, dose 0.1-0.5 mg/kg

T1 sequence (P41143 whole entry): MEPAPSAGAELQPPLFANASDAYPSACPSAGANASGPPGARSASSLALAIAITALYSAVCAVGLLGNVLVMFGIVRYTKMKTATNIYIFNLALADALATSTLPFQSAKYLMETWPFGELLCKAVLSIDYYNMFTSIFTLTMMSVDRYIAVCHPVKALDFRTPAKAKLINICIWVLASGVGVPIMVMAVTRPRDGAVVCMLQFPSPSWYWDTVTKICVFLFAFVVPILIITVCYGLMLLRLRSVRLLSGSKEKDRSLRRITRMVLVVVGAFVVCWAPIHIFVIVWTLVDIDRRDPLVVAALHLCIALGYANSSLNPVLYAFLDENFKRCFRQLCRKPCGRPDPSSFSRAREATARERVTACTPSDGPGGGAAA
Mu-type opioid receptor, sequence (P42866 whole entry): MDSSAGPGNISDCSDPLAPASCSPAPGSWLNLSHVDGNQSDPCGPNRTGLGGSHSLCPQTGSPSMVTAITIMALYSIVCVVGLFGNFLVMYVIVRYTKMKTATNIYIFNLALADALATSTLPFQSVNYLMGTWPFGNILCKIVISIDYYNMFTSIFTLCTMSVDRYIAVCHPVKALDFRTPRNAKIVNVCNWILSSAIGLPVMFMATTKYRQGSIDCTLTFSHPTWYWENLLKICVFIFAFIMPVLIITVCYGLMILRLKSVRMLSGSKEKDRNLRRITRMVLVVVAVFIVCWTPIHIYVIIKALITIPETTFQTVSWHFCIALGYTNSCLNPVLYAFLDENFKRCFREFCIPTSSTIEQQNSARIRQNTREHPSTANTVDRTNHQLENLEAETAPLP
Kappa-type opioid receptor, sequence (P33534 whole entry): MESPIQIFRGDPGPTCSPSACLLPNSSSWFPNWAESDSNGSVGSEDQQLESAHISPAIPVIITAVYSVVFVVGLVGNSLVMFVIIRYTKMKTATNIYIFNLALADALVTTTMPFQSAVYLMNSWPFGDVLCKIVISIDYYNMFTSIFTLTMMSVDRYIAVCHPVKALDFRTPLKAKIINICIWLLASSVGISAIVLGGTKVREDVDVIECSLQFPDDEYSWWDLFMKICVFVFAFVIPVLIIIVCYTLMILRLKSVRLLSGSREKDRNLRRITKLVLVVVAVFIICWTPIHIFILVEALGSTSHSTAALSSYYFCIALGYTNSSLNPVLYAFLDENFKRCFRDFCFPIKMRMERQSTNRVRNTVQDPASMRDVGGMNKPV

Compound | Kd [1] [nM] | Kd (Mu-type opioid receptor) [nM] | Kd [2] [nM] | MPE (Mus musculus [3]) | other results
CN(C(=O)CCc1ccco1)[C@H]1CC[C@@]2(O)[C@H]3Cc4ccc(O)c5c4[C@@]2(CCN3CC2CC2)[C@H]1O5.Cl | 0.12 | 0.15 | 0.37 | 100% | –
CN(C(=O)/C=C/c1ccoc1)[C@H]1CC[C@@]2(O)[C@H]3Cc4ccc(O)c5c4[C@@]2(CCN3CC2CC2)[C@H]1O5.Cl | – | – | – | 100% | EC50 [4]: 2.68 nM; Kd [5]: 0.64 nM; ED50 (Mus musculus [6]): 0.037 mg/kg
CN1CC[C@]23c4c5ccc(O)c4O[C@H]2[C@@H](O)C=C[C@H]3[C@H]1C5 | – | – | – | – | Activity (Mus musculus [7]): inactive; Activity (Mus musculus [8]): Active
CN(C(=O)CCc1ccoc1)[C@@H]1CC[C@@]2(O)[C@H]3Cc4ccc(O)c5c4[C@@]2(CCN3CC2CC2)[C@H]1O5.Cl | 0.28 | 0.53 | 8.42 | 100% | –
CN(C(=O)/C=C/c1ccco1)[C@H]1CC[C@@]2(O)[C@H]3Cc4ccc(O)c5c4[C@@]2(CCN3CC2CC2)[C@H]1O5.Cl | 0.14 | 0.2 | 0.93 | 80% | blood plasma ratio at 0.5 h (in vivo [9]): 0.633; Activity (Mus musculus [10]): inactive; Activity (Mus musculus [11]): inactive; Activity [12]: Toxic; Activity [13]: Toxic; Drug uptake [14]: Active; Activity (Mus musculus [15]): Active; blood plasma ratio at 1 h (in vivo [16]): 0.938; Emax [17]: 83.2%; Activity [18]: Non-Toxic; Activity (Mus musculus [19]): inactive; Activity [20]: Toxic
Cl.O=C(/C=C/c1ccco1)N[C@H]1CC[C@@]2(O)[C@H]3Cc4cccc5c4[C@@]2(CCN3CC2CC2)[C@H]1O5 | 249 | 107 | 456 | <=40% | Ratio (Mus musculus [21]): 0; MPE (Mus musculus [22]): 100%
Cl.O=C(CCc1ccco1)N[C@@H]1CC[C@@]2(O)[C@H]3Cc4cccc5c4[C@@]2(CCN3CC2CC2)[C@H]1O5 | 23.6 | 27.5 | 800 | 40% | –
Cl.O=C(CCc1ccoc1)N[C@H]1CC[C@@]2(O)[C@H]3Cc4ccc(O)c5c4[C@@]2(CCN3CC2CC2)[C@H]1O5 | – | 0.44 | – | <=40% | MPE (Mus musculus [22]): 100%
CN(C(=O)CCc1ccco1)[C@@H]1CC[C@@]2(O)[C@H]3Cc4cccc5c4[C@@]2(CCN3CC2CC2)[C@H]1O5.Cl | 50.4 | 93.6 | 532 | 40% | –
CN(C(=O)CCc1ccco1)[C@@H]1CC[C@@]2(O)[C@H]3Cc4ccc(O)c5c4[C@@]2(CCN3CC2CC2)[C@H]1O5.Cl | 0.32 | 0.66 | 7.32 | 100% | –
Cl.O=C(CCc1ccco1)N[C@@H]1CC[C@@]2(O)[C@H]3Cc4ccc(O)c5c4[C@@]2(CCN3CC2CC2)[C@H]1O5 | 0.61 | 0.28 | 33 | <=40% | MPE (Mus musculus [22]): 40%
CN(C(=O)CCc1ccco1)[C@H]1CC[C@@]2(O)[C@H]3Cc4cccc5c4[C@@]2(CCN3CC2CC2)[C@H]1O5.Cl | 1 | 14.1 | 46.8 | 40% | –
Cl.O=C(CCc1ccoc1)N[C@H]1CC[C@@]2(O)[C@H]3Cc4cccc5c4[C@@]2(CCN3CC2CC2)[C@H]1O5 | 161 | 54.5 | 154 | <=40% | Ratio (Mus musculus [21]): 0; Emax [17]: 93.1%; MPE (Mus musculus [22]): 80%
Cl.O=C(/C=C/c1ccco1)N[C@@H]1CC[C@@]2(O)[C@H]3Cc4cccc5c4[C@@]2(CCN3CC2CC2)[C@H]1O5 | 7.03 | 42.4 | 551 | <=40% | Emax [17]: 81%; MPE (Mus musculus [22]): 100%
CN(C(=O)CCc1ccoc1)[C@H]1CC[C@@]2(O)[C@H]3Cc4ccc(O)c5c4[C@@]2(CCN3CC2CC2)[C@H]1O5.Cl | 0.13 | 0.18 | 0.59 | 40% | –
Cl.O=C(/C=C/c1ccco1)N[C@@H]1CC[C@@]2(O)[C@H]3Cc4ccc(O)c5c4[C@@]2(CCN3CC2CC2)[C@H]1O5 | 0.17 | 0.3 | 12.8 | 80% | –
Cl.O=C(/C=C/c1ccco1)N[C@H]1CC[C@@]2(O)[C@H]3Cc4ccc(O)c5c4[C@@]2(CCN3CC2CC2)[C@H]1O5 | 1.08 | 0.53 | 8.75 | 100% | –
Cl.O=C(CCc1ccco1)N[C@H]1CC[C@@]2(O)[C@H]3Cc4cccc5c4[C@@]2(CCN3CC2CC2)[C@H]1O5 | 73.8 | 53.1 | 90.2 | <=40% | MPE (Mus musculus [22]): 80%
CN(C(=O)/C=C/c1ccco1)[C@H]1CC[C@@]2(O)[C@H]3Cc4cccc5c4[C@@]2(CCN3CC2CC2)[C@H]1O5.Cl | 0.62 | 16.8 | 68.4 | 80% | Emax [17]: 102%
Cl.O=C(CCc1ccco1)N[C@H]1CC[C@@]2(O)[C@H]3Cc4ccc(O)c5c4[C@@]2(CCN3CC2CC2)[C@H]1O5 | – | 0.72 | – | <=40% | –
CN(C(=O)/C=C/c1ccoc1)[C@@H]1CC[C@@]2(O)[C@H]3Cc4ccc(O)c5c4[C@@]2(CCN3CC2CC2)[C@H]1O5.Cl [NALFURAFINE HYDROCHLORIDE] | – | – | – | 80% | EC50 [4]: 141 nM; Kd [5]: 116 nM; Activity (Mus musculus [23]): inactive; Activity (Mus musculus [10]): inactive; Activity (Mus musculus [11]): inactive; Activity [24]: Non-Toxic; Activity [12]: Toxic; ED50 (Mus musculus [6]): 0.046 mg/kg; Activity (Mus musculus [25]): Active; Activity [26]: Dose-Dependent Effect; Activity (Mus musculus [19]): inactive; Activity [20]: Toxic
CN(C(=O)CCc1ccoc1)[C@H]1CC[C@@]2(O)[C@H]3Cc4cccc5c4[C@@]2(CCN3CC2CC2)[C@H]1O5.Cl | 0.48 | 7.74 | 48.6 | 80% | –
CN(C(=O)CCc1ccoc1)[C@@H]1CC[C@@]2(O)[C@H]3Cc4cccc5c4[C@@]2(CCN3CC2CC2)[C@H]1O5.Cl | 34.5 | 43.8 | 891 | <=40% | MPE (Mus musculus [22]): 100%
Cl.O=C(CCc1ccoc1)N[C@@H]1CC[C@@]2(O)[C@H]3Cc4ccc(O)c5c4[C@@]2(CCN3CC2CC2)[C@H]1O5 | – | 0.21 | – | <=40% | –
C=CCN1CC[C@]23c4c5ccc(O)c4O[C@H]2C(=O)CC[C@@]3(O)[C@H]1C5 [NALOXONE] | – | – | – | – | MPE (Mus musculus [22]): <=40%
Cl.O=C(CCc1ccoc1)N[C@@H]1CC[C@@]2(O)[C@H]3Cc4cccc5c4[C@@]2(CCN3CC2CC2)[C@H]1O5 | 8.37 | 17.3 | 749 | 40% | –
CN(C(=O)/C=C/c1ccco1)[C@@H]1CC[C@@]2(O)[C@H]3Cc4cccc5c4[C@@]2(CCN3CC2CC2)[C@H]1O5.Cl | 4.11 | 215 | 2260 | 40% | Emax [17]: 82.1%
